{
  "source": "patent US10968203B2",
  "about": "“Pyrimidinyl-pyridyloxy-naphthyl compounds and methods of treating IRE1-related diseases and disorders” (Genentech, Inc., priority 2017, dated 2021)",
  "test_system": "XBP1s-luc 293 LUC",
  "experiment": "cellular PD assay, XBP1s-LUC reporter (Example 903)",
  "assay_type": "cell-based",
  "details": "Table 1; read-out: XBP1s-luc 293 LUC (IC50)",
  "in_short": "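A luciferase fusion, in frame and expressed only when the XBP1 transcript is spliced, served as the readout of cellular IRE1α activity in an XBP1-Luc reporter line.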",
  "note": "pIC50: −log10 of the molar value.",
  "data": [
    {"smiles": "Cc1ccc2c(N3CCC(C)(C)C3=O)cccc2c1Oc1ncccc1-c1ccnc(N[C@H]2CCCNC2)n1", "note": "[Example 238, (S)-3,3-Dimethyl-1-(6-methyl-5-((3-(2-(piperidin-3-ylamino)pyrimidin-4-yl)pyridin-2-yl)oxy)naphthalen-1-yl)pyrrolidin-2-one]", "values": [
      {"measurement": "pIC50", "result": 6.56}
    ]},
    {"smiles": "Cc1ccc2c(Oc3ccccn3)cccc2c1Oc1ncccc1-c1ccnc(N[C@H]2CCCNC2)n1", "note": "[Example 239, (S)-4-(2-((2-Methyl-5-(pyridin-2-yloxy)naphthalen-1-yl)oxy)pyridin-3-yl)-N-(piperidin-3-yl)pyrimidin-2-amine]", "values": [
      {"measurement": "pIC50", "result": 6.61}
    ]},
    {"smiles": "CCCS(=O)(=O)Nc1cccc2c(Oc3ncc(C)cc3-c3ccnc(N[C@H]4CCCNC4)n3)c(C)ccc12", "note": "[Example 240, (S)—N-(6-Methyl-5-((5-methyl-3-(2-(piperidin-3-ylamino)pyrimidin-4-yl)pyridin-2-yl)oxy)naphthalen-1-yl)propane-1-sulfonamide]", "values": [
      {"measurement": "pIC50", "result": 6.78}
    ]},
    {"smiles": "Cc1ccc2c(NCCCF)cccc2c1Oc1ncccc1-c1ccnc(N[C@H]2CCCNC2)n1", "note": "[Example 241, (S)-4-(2-((5-((3-Fluoropropyl)amino)-2-methylnaphthalen-1-yl)oxy)pyridin-3-yl)-N-(piperidin-3-yl)pyrimidin-2-amine]", "values": [
      {"measurement": "pIC50", "result": 6.85}
    ]},
    {"smiles": "Cc1ccc2c(NC(=O)C3(CF)CC3)cccc2c1Oc1ncccc1-c1ccnc(N[C@H]2CCCNC2)n1", "note": "[Example 242, (S)-1-(Fluoromethyl)-N-(6-methyl-5-((3-(2-(piperidin-3-ylamino)pyrimidin-4-yl)pyridin-2-yl)oxy)naphthalen-1-yl)cyclopropane-1-carboxamide]", "values": [
      {"measurement": "pIC50", "result": 6.44}
    ]},
    {"smiles": "Cc1ccc2c(NS(=O)(=O)CCC(C)C)c(F)ccc2c1Oc1ncccc1-c1ccnc(N[C@H]2CCCNC2)n1", "note": "[Example 243, (S)—N-(2-Fluoro-6-methyl-5-((3-(2-(piperidin-3-ylamino)pyrimidin-4-yl)pyridin-2-yl)oxy)naphthalen-1-yl)-3-methylbutane-1-sulfonamide]", "values": [
      {"measurement": "pIC50", "result": 7.17}
    ]},
    {"smiles": "Cc1nc(CNc2cccc3c(Oc4ncccc4-c4ccnc(N[C@H]5CCCNC5)n4)c(C)ccc23)cs1", "note": "[Example 244, (S)-4-(2-((2-Methyl-5-(((2-methylthiazol-4-yl)methyl)amino)naphthalen-1-yl)oxy)pyridin-3-yl)-N-(piperidin-3-yl)pyrimidin-2-amine]", "values": [
      {"measurement": "pIC50", "result": 7.92}
    ]},
    {"smiles": "Cc1ccc2c(-n3nccc3C)cccc2c1Oc1ccccc1-c1ccnc(N[C@H]2CCCNC2)n1", "note": "[Example 246, (S)-4-(2-((2-Methyl-5-(5-methyl-1H-pyrazol-1-yl)naphthalen-1-yl)oxy)phenyl)-N-(piperidin-3-yl)pyrimidin-2-amine]", "values": [
      {"measurement": "pIC50", "result": 6.63}
    ]},
    {"smiles": "Cc1ccc2c(N3CCN(C)S3(=O)=O)cccc2c1Oc1ncccc1-c1ccnc(N[C@H]2CCCNC2)n1", "note": "[Example 247, (S)-2-Methyl-5-(6-methyl-5-((3-(2-(piperidin-3-ylamino)pyrimidin-4-yl)pyridin-2-yl)oxy)naphthalen-1-yl)-1,2,5-thiadiazolidine 1,1-dioxide]", "values": [
      {"measurement": "pIC50", "result": 6.44}
    ]},
    {"smiles": "Cc1ccc2c(N3CCCCCC3=O)cccc2c1Oc1ncccc1-c1ccnc(N[C@H]2CCCNC2)n1", "note": "[Example 249, (S)-1-(6-Methyl-5-((3-(2-(piperidin-3-ylamino)pyrimidin-4-yl)pyridin-2-yl)oxy)naphthalen-1-yl)azepan-2-one]", "values": [
      {"measurement": "pIC50", "result": 6.51}
    ]},
    {"smiles": "Cc1ccn(-c2cccc3c(Oc4ncccc4-c4ccnc(N[C@H]5CCCNC5)n4)c(C)ccc23)n1", "note": "[Example 250, (S)-4-(2-((2-methyl-5-(3-methyl-1H-pyrazol-1-yl)naphthalen-1-yl)oxy)pyridin-3-yl)-N-(piperidin-3-yl)pyrimidin-2-amine]", "values": [
      {"measurement": "pIC50", "result": 6.59}
    ]},
    {"smiles": "Cc1ccc2c(NC(=O)C3CCCC3(F)F)cccc2c1Oc1ncccc1-c1ccnc(N[C@H]2CCCNC2)n1", "note": "(stereo partly drawn) [Example 251, 2,2-Difluoro-N-(6-methyl-5-((3-(2-(((S)-piperidin-3-yl)amino)pyrimidin-4-yl)pyridin-2-yl)oxy)naphthalen-1-yl)cyclopentane-1-carboxamide]", "values": [
      {"measurement": "pIC50", "result": 6.84}
    ]}
  ]
}
